How the values were obtained:
[1] = Ocular safety and tolerability of the formulation, mouse eyes; assay type: in vivo; conditions: dose and frequency of the HSV-1 corneal neovascularization study
Description: (§1) This was assessed with the dose and frequency that was used in the chemotherapeutic study of HSV-1 corneal neovascularization. FIG. 1A presents the results of slit-lamp examination (SLE) scores of the corneas of the four treatment groups beginning on post-inoculation day 2 and continuing to 25 days following infection.

[2] = system: HSV-1 17syn+ induced corneal neovascularization; test: HSV-1 corneal neovascularization mouse model, slit-lamp examination score; assay type: in vivo, Balb/c mice; conditions: day 25 post infection; drops 4 times daily for 14 days; 1% TFT, 0.01% flavopiridol, 0.1% DRB; n=10
Description: Corneal neovascularization was determined in a masked fashion by slit lamp analysis on days 2, 4, 7, 9, 11, 14, 18, and 25 post-infection (PI) with 5×10^5 PFU/eye of HSV-1 17syn+ using the formula A=(C×0.4×L×n)/2 where C=clock hours of neovascularization; 30° arc is 1 (360° circle with a total of 12); L is the length of the longest neovessel, and A is the area of neovascularization.
All experimental procedures were performed in accordance with the ARVO Resolution for the Use of Animals in Ophthalmic and Vision Research and were approved by the Xavier University Animal Care and Use Committee. Female 20 g Balb/c mice were obtained from Charles River Laboratories. Mice were allowed to equilibrate to their surroundings for 2 weeks and then were anesthetized by intramuscular administration of xylazine (6.6 mg/kg of body weight) and ketamine (100 mg/kg of body weight). The corneas were mildly scarified in a 2×2 cross-hatch pattern and each cornea was inoculated with 5×10^5 PFU of strain HSV 17syn+. […] Average neovascularization/eye was scored using the formula A=(C×0.4×L×π)/2 where C=clock hours of neovascularization; 30° arc is 1 (360° circle with a total of 12); L is the length of the longest neovessel, and A is the area of neovascularization. Students scored (by eye) the animals on the days indicated in a masked fashion using the slit-lamp, and images representative of each group were taken. Clinical scores based on epiphora, inflammation and discharge were calculated where 0=no manifestations, +1=slight manifestations, +2=moderate manifestations, and +3=severe manifestations. […] Ex ovo chick embryo chorioallantoic membrane collagen angiogenesis assays were performed using methods as previously described (Deryugina E I and Quigley J P. Chapter 2. Chick embryo chorioallantoic membrane models to quantify angiogenesis induced by inflammatory and tumor cells or purified effector molecules. Methods Enzymol. 444:21-41. 2008). […]
This was assessed with the dose and frequency that was used in the chemotherapeutic study of HSV-1 corneal neovascularization. […]

HSV-1 17syn+ = test: Real-time PCR of HSV-1 DNA on ocular swabs of infected mice; assay type: in vivo, Balb/c mice; conditions: day 25 post infection; 1% TFT, 0.01% flavopiridol, 0.1% DRB drops; n=10
Description: SYBR Green semi-quantitative real-time PCR was performed on DNA samples eluted from swabs taken from mouse eyes on days 2, 4, 7, 9, 11, 14, 18 and 25 post infection with 5×10^5 PFU/eye HSV-1 17syn+ using primers specific for HSV-1 DNA polymerase.
All experimental procedures were performed in accordance with the ARVO Resolution for the Use of Animals in Ophthalmic and Vision Research and were approved by the Xavier University Animal Care and Use Committee. Female 20 g Balb/c mice were obtained from Charles River Laboratories. Mice were allowed to equilibrate to their surroundings for 2 weeks and then were anesthetized by intramuscular administration of xylazine (6.6 mg/kg of body weight) and ketamine (100 mg/kg of body weight). The corneas were mildly scarified in a 2×2 cross-hatch pattern and each cornea was inoculated with 5×10^5 PFU of strain HSV 17syn+. […] DNA was collected by swabbing the eyes with filter paper, and the eyes were examined with a slit-lamp on PI days 2, 4, 7, 9, 11, 14, 18 and 25. Average neovascularization/eye was scored using the formula A=(C×0.4×L×π)/2 where C=clock hours of neovascularization; 30° arc is 1 (360° circle with a total of 12); L is the length of the longest neovessel, and A is the area of neovascularization. Students scored (by eye) the animals on the days indicated in a masked fashion using the slit-lamp, and images representative of each group were taken. Clinical scores based on epiphora, inflammation and discharge were calculated where 0=no manifestations, +1=slight manifestations, +2=moderate manifestations, and +3=severe manifestations. […] Ex ovo chick embryo chorioallantoic membrane collagen angiogenesis assays were performed using methods as previously described (Deryugina E I and Quigley J P. Chapter 2. Chick embryo chorioallantoic membrane models to quantify angiogenesis induced by inflammatory and tumor cells or purified effector molecules. Methods Enzymol. 444:21-41. 2008). […]

[3] = system: HSV-1 17syn+ ocular infection; test: HSV-1 ocular infection mouse model, H&E histology of eyes (leukocytic infiltration, peripheral neovascularization); assay type: in vivo, Balb/c mice; conditions: day 25 PI; for mouse eyes exhibiting corneal neovascularization / mouse eyes exhibiting leukocytic infiltration: H&E sections; for histological score (scale 0-1) for leukocytic infiltrate and peripheral neovascularization: H&E stained corneal sections
Description: Histological score (0-1) was calculated based on leukocytic infiltration and peripheral neovascularization of hematoxylin & eosin (H&E) stained slides of mouse eyes on day 25 PI.
(§2) All experimental procedures were performed in accordance with the ARVO Resolution for the Use of Animals in Ophthalmic and Vision Research and were approved by the Xavier University Animal Care and Use Committee. Female 20 g Balb/c mice were obtained from Charles River Laboratories. Mice were allowed to equilibrate to their surroundings for 2 weeks and then were anesthetized by intramuscular administration of xylazine (6.6 mg/kg of body weight) and ketamine (100 mg/kg of body weight). The corneas were mildly scarified in a 2×2 cross-hatch pattern and each cornea was inoculated with 5×10^5 PFU of strain HSV 17syn+. […] DNA was collected by swabbing the eyes with filter paper, and the eyes were examined with a slit-lamp on PI days 2, 4, 7, 9, 11, 14, 18 and 25. Average neovascularization/eye was scored using the formula A=(C×0.4×L×π)/2 where C=clock hours of neovascularization; 30° arc is 1 (360° circle with a total of 12); L is the length of the longest neovessel, and A is the area of neovascularization. Students scored (by eye) the animals on the days indicated in a masked fashion using the slit-lamp, and images representative of each group were taken. Clinical scores based on epiphora, inflammation and discharge were calculated where 0=no manifestations, +1=slight manifestations, +2=moderate manifestations, and +3=severe manifestations. Mice were sacrificed with CO2 on day 25 post-infection, and eyes were harvested, sectioned, stained with hematoxylin and eosin (H&E) for histological analysis based on peripheral neovascularization and leukocytic infiltration where 0=clear eyes, 0.5=either peripheral neovascularization or leukocytic infiltration, and 1=both peripheral neovascularization and leukocytic infiltration. Ex ovo chick embryo chorioallantoic membrane collagen angiogenesis assays were performed using methods as previously described (Deryugina E I and Quigley J P. Chapter 2. Chick embryo chorioallantoic membrane models to quantify angiogenesis induced by inflammatory and tumor cells or purified effector molecules. Methods Enzymol. 444:21-41. 2008). Briefly, fertilized embryos (Charles River Laboratories, Charleston, S.C.) were incubated at 37.5° C. for 3 days, removed from their shell using a Dremel tool and placed into a covered weighing boat for 7 further days of incubation. […] Four collagen onplants were added per egg on at least 3 separate eggs. After three additional days of incubation, images were taken of each plug using a mini-Vid camera (LW Scientific; Lawrenceville, Ga.) and quantified in a masked fashion based on the percentage of grids that were positive for newly formed blood vessels.
To confirm the results in FIGS. 1A and 1B, sections of one cornea from each mouse was sectioned, stained with H&E and analyzed for leukocytic infiltrate and peripheral neovascularization of the cornea.

[4] = Ocular safety and tolerability of the formulation, rabbit eyes; assay type: in vivo; conditions: dose and frequency of the HSV-1 corneal neovascularization study
Description: as §1

HSV-1 = test: In vitro viral inhibition (plaque) assay in CV-1 cells; assay type: cell-based
Description: Numbers of plaque-forming units (PFU) were determined in a standard plaque assay procedure using CV-1 cells.
The HSV-1 strain employed was 17 syn+. Before inoculation, numbers of plaque-forming units (PFU) were determined in a standard plaque assay procedure using CV-1 cells. Pooled primary human umbilical vein endothelial cells (HUVEC) were obtained from Lonza (Basel, Switzerland) and were cultured in Medium 199 (Life Technologies, Carlsbad, Calif.) supplemented with 20% heat-inactivated FBS, penicillin G (100 U/ml), streptomycin ([…]), 2 mM L-glutamine and 1:100 endothelial cell growth supplement (ECGS, BD Biosciences, Bedford, Mass.) on tissue culture plates coated with 0.2% gelatin up to passage 6. Cells were sub-passaged or harvested when they reached ˜80% confluence. For periods of serum-deprivation, HUVEC were incubated for 4 or 16 hours in serum-starvation medium (SSM) containing Medium 199 without phenol red or ECGS but containing 0.5% FBS unless otherwise indicated. In vitro viral inhibition assays with CV-1 cells were performed as previously described (Gong E Y. Methods for screening and profiling inhibitors of herpes simplex viruses. Methods Mol Biol. 1030:303-313. 2013).

[5] = system: HSV-1 17syn+ ocular infection; test: HSV-1 ocular infection mouse model, combined clinical score (epiphora, inflammation, discharge); assay type: in vivo, Balb/c mice; conditions: 1% TFT, 0.01% flavopiridol, 0.1% DRB drops
Description: The combined clinical score was determined based on epiphora (excess tearing), inflammation and discharge. […], +1=slight manifestations, +2=moderate manifestations, and +3=severe manifestations.
as §2
FIG. 1B is the combined clinical score for the treatment groups based on epiphora (excess tearing), inflammation, and discharge.

SMILES	safety and tolerability of the formulation in the eye [1]	slit-lamp examination (SLE) score of corneal neovascularization [2]	quantitative real-time PCR score (HSV-1 DNA) on ocular swabs (HSV-1 17syn+)	mouse eyes exhibiting corneal neovascularization [3]	mouse eyes exhibiting leukocytic infiltration [3]	histological score (scale 0-1) for leukocytic infiltrate and peripheral neovascularization [3]	safety and tolerability of the formulation in the eye [4]	concentration at which HSV-1 replication was significantly reduced (HSV-1)	IC50 (HSV-1; read-out: average IC50 of HSV-1 replication)	combined clinical score (epiphora, inflammation, discharge; 0 to +3) ([5]; day 11)	combined clinical score (epiphora, inflammation, discharge; 0 to +3) ([5]; day 25)
OC[C@H]1O[C@@H](n2cnc3cc(Cl)c(Cl)cc32)[C@H](O)[C@@H]1O [DRB, 5,6-Dichlorobenzimidazole-1-β-D-ribofuranoside]	safe and well-tolerated	0.042±0.60	0.042±0.60	0%	10%	0.25±0.134	safe and well-tolerated	25 µM	86.7 µM	0.00±0.0	0.042±0.60
O=c1[nH]c(=O)n([C@H]2C[C@H](O)[C@@H](CO)O2)cc1C(F)(F)F [TFT, triflurothymidine]		0.0±0.0	0.0±0.0	0%	30%	0.278±0.088				0.002±0.41	0.00±0.00

Reference: patent US20180200279A1, “INHIBITION OF HSV-1-ASSOCIATED CORNEAL NEOVASCULARIZATION USING INHIBITORS OF CYCLIN-DEPENDENT KINASE 9” (XAVIER UNIVERSITY OF LOUISIANA, priority 2014, published 2018)
